Reference: patent US20110059035A1, “COMPOSITIONS BASED ON POLYMER/HYDROGEN PEROXIDE COMPLEXES AND USES THEREOF” (L"OREAL, priority 2008, published 2011)

What was measured:
[1] = Activator selection: pH of Peroxydone K-30 dispersion in water after addition of activator; type: physicochemical; details: for Associated pH: at the minimum amount of activator, 11 g of Peroxydone K-30 in 75 g of water; for Minimum amount in order to reach a pH > 9 or a plateau pH if pH < 9: initial amount of 11 g of Peroxydone K-30, i.e. 2 g of H2O2, in 75 g of water
Method: In the case of a PVP-H2O2 complex, the following protocol can be used to select the activators. A dispersion of 11 g of Peroxydone K-30® (ISP) in 75 g of water is produced, to which increasing amounts of activator are added. pH is measured immediately after each addition. The activator is added in excess until the activator/H2O2 ratio by weight reaches 10.

[2] = In vitro bleaching test on a dye (lightening activity); details: H2O2 4% or PVP-H2O2 22% (eq. 4% H2O2), 1 g in 19 g dye solution, pH 10.7, OD 630 nm
Method: Protocol for in vitro bleaching test Dye solution or “solution X” is a solution of disodium salt of brilliant blue FCF (CI: 42090) from LCW (Sensient). The dye solution is prepared as follows: 15 mg of dye powder are dissolved in 50 ml of borate buffer pH 10.7 and then again diluted to 1/50th. […] After stirring the mixture in the dark for 10 min, the dispersion is filtered (0.45 μm cellulose filter) and the optical density is measured over the range from 400 to 800 nm at 25° C. […] The decoloring effectiveness is reflected by the bleaching percentage at t=10 min (i.e. [ODt10 min (mixture)−ODt10 min (dye)/ODt0 (dye)]×100.

Row | Structure (SMILES) | Associated pH [1] | Minimum amount in order to reach a pH > 9 or a plateau pH if pH < 9 [1] | bleaching percentage at t=10 min ([2]; dilution medium PEG-8) | bleaching percentage at t=10 min ([2]; dilution medium butylene glycol) | bleaching percentage at t=10 min ([2]; dilution medium ethanol) | bleaching percentage at t=10 min ([2]; dilution medium glycerol)
1 | [Ca+2].[O-][O-] [Calcium peroxide] | 9.3 | 0.05 g | – | – | – | –
2 | O=C([O-])O.[Na+] [Sodium bicarbonate] | 8.1 | 0.9 g | – | – | – | –
3 | O=[Si]([O-])[O-].[Na+].[Na+] [Sodium metasilicate] | 9.8 | 0.11 g | – | – | – | –
4 | OO [Product H2O2, hydrogen peroxide] | – | – | 61% | 63% | 72% | 27%
